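Tested at 5 concentrations; 48 h exposure; 96-well plates; endpoints linearly interpolated, else capped at highest concentration. GI50 is the concentration that inhibits growth by half. TGI marks complete inhibition of growth.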
What was measured:
Assay in all cases: NCI tumour cell line growth inhibition, 48 h
[1] = test system: HT29 colon
[2] = test system: SR leukemia
[3] = test system: HCT-116 colon
[4] = test system: SW-620 colon
[5] = test system: MALME-3M melanoma
[6] = test system: EKVX NSCLC
[7] = test system: OVCAR-5 ovarian
[8] = test system: UO-31 renal
[9] = test system: HOP-92 NSCLC
[10] = test system: CCRF-CEM leukemia

Row | SMILES | TGI [1] [µM] | TGI [2] [µM] | TGI [3] [µM] | TGI [4] [µM] | TGI [5] [µM] | TGI [6] [µM] | TGI [7] [µM] | TGI [8] [µM] | TGI [9] [µM] | TGI [10] [µM] | GI50 [1] [µM] | GI50 [2] [µM] | GI50 [3] [µM] | GI50 [4] [µM] | GI50 [5] [µM] | GI50 [6] [µM] | GI50 [7] [µM] | GI50 [8] [µM] | GI50 [9] [µM] | GI50 [10] [µM]
1 | O=S(=O)(Nc1ccc2ccc3cccc4ccc1c2c34)c1ccccc1 | > 100 | > 100 | > 100 | > 100 | > 100 | > 100 | > 100 | > 100 | 98.3 | 53 |  |  |  |  |  |  |  |  |  | 
2 | Cc1cc2c(C)nn(Cc3ccc(Cl)cc3Cl)c2c(C#N)c1C | > 100 | > 100 | > 100 | > 100 | > 100 | > 100 | > 100 | > 100 | 92.6 | > 100 |  |  |  |  |  |  |  |  |  | 
3 | CC[C@]12C=CCN3CC[C@]4(C(=C(C(=O)OC)C1)Nc1ccccc14)[C@@H]32 | 12.8 | 30.7 | 10.9 | 12.3 | 15.2 | 22.4 | 21.2 | 16.5 | 9.27 | > 100 | 3.41 | 2.55 | 3.16 | 3.18 | 3.43 | 5.99 | 6.55 | 4.11 | 2.28 | 2.73
4 | c1ccc(COc2ccc(Nc3ncnc4ccc(-c5ccco5)cc34)cc2)cc1 | 16.1 | > 25 | 12.4 | 22.7 | > 21.1 | > 25 | 14.8 | > 22.1 | 7.21 | > 25 | 4.52 | 6.7 | 4.93 | 7.47 | 6.04 | 1.81 | 4.57 | 4.76 | 0.379 | 7.76
5 | COc1ccc2c(c1)C(=O)/C(=C/c1ccc(OCC(=O)c3ccc(Cl)cc3)cc1)O2 | 40.7 | 6.34 | 13 | 10.6 | 42.3 | > 100 | 23.9 | 25.6 | 37.1 | 4.75 | 20.1 | 2.15 | 3.07 | 3.48 | 20 | 25.6 | 11.5 | 10.4 | 15.7 | 1.92
6 | Cn1cc(-c2csc(-c3cn(C)c4ncccc34)n2)c2ccccc21 | 4.16 | > 43.9 | 19 | > 100 | 41 | > 100 | 23.8 | > 66.4 | 14.1 | > 61.6 | 0.276 | 0.0961 | 0.354 | 0.26 | 0.647 | 0.906 | 0.876 | 0.71 | 0.346 | 0.368
7 | CC(=O)OCC1OC(n2cnc3c(I)nc(I)nc32)C(OC(C)=O)C1OC(C)=O (stereo unspecified) | 19.7 | 11.8 | 16.7 | 28.4 | 33.5 | 33.3 | 35.1 | 31.5 | 9.16 | 27.4 |  |  |  |  |  |  |  |  |  | 
8 | CC(=O)C(CN1CCOCC1)C(c1ccccc1)c1c(O)c2ccccc2oc1=O (stereo unspecified) | > 100 | > 100 | > 100 | > 100 | > 100 | > 100 | > 100 | > 100 | > 100 | > 100 |  |  |  |  |  |  |  |  |  | 
9 | COC1C2c3ccccc3C(C#N)(Cc3ccc4c(c32)OCO4)N1C(=O)c1ccccc1 (stereo unspecified) | > 100 | > 100 | > 100 | > 100 | > 100 | > 100 | > 100 | > 100 | > 100 | > 100 |  |  |  |  |  |  |  |  |  | 
10 | S=c1nc(/C=C/c2ccc(Cl)c(Cl)c2)[nH][nH]1 | > 100 | > 100 | > 100 | > 100 | > 100 | > 100 | > 100 | > 100 | 64.6 | > 100 |  | 22.7 |  |  |  |  |  |  | 0.802 | 
11 | CNS(=O)(=O)NN(C)S(=O)(=O)c1ccc(C)cc1 | > 100 | > 100 | > 100 | > 100 | > 100 | > 100 | > 100 | > 100 | > 100 | > 100 |  |  |  |  |  |  |  |  |  | 
12 | C[CH2][Sn]([CH2]C)([O]C(=O)c1cc(OC)c(OC)c(OC)c1)[O][Sn]([CH2]C)([CH2]C)[O]C(=O)c1cc(OC)c(OC)c(OC)c1 | > 100 | > 100 | > 100 | 34.9 | 32.2 | > 94.8 | > 100 | > 100 | 36.9 | 33.1 | 48.1 | 36.3 | 68.2 | 19.1 | 17.3 | > 53.9 | > 100 | > 100 | 19.6 | 7.78
13 | C=C1C(=O)C23C(O)C1CCC2C12CO[C@]3(O)[C@@H](O)C1C(C)(C)CCC2O (stereo partly specified) | 30.3 | > 100 | 15.5 | 23.8 | 17.5 | 28.9 | 34.5 | 31.1 | 8.99 | 5.98 |  |  |  |  |  |  |  |  |  | 
14 | CCN1CCC(O)(c2ccccc2)C(C(=O)c2ccccc2)C1 (stereo unspecified) | 39.7 | 60.3 | 31 | 38.3 | 38.4 | > 76.4 | 37.5 | > 70 | 36.1 | 38.3 |  |  |  |  |  |  |  |  |  | 
15 | O=C(/C=C/c1cccnc1)/C=C/c1cccnc1 | 3.13 | > 100 | 0.321 | 2.48 | 5.31 | 21.6 | 5.03 | 1.89 | 5.89 | 0.821 | 1.3 | 0.196 | 0.164 | 0.724 | 1.97 | 4.74 | 2.17 | 0.562 | 2.33 | 0.199
16 | COc1cc2nc(-c3ccc(Cl)cc3)cc(OCCCN3CCC(O)CC3)c2cc1OC | 3.81 | 3.42 | 11.3 | 13 | 4.95 | 12.9 | 15.6 | 5.97 | 6.79 | 10.4 | 0.7 | 0.373 | 1.44 | 3.05 | 1.89 | 1.33 | 1.16 | 1.72 | 1.25 | 2.65
17 | Oc1ccc(-c2nc(-c3ccc(F)cc3)c(-c3ccncc3)[nH]2)cc1 | > 100 | 52.8 | 53 | > 100 | 9.13 | > 100 | > 100 | 20.2 | > 100 | 59.8 | 3.78 | 6.98 | 17.4 | 32.1 | 2.45 | 13.6 | 59.3 | 3.44 | 17.2 | 9.62
18 | CC(=O)NNc1nc(C)c(C(/C=C/c2ccc3c(c2)OCO3)=N/NC(=O)c2ccncc2)s1 | > 100 | > 100 | > 100 | > 100 | > 100 | > 100 | > 100 | > 100 | > 100 | > 100 |  |  |  |  |  |  |  |  |  | 
19 | CC1OC(OC2C(OC3CCC4(C)C(CCC5(C)C4CC=C4C6CC(C)(C)CCC6(CO)C(O)CC45C)C3(C)C)OC(C(=O)O)C(OC3OC(COC4OC(CO)C(O)C(O)C4O)C(O)C(O)C3O)C2O)C(O)C(O)C1O (stereo unspecified) | 25.5 | 5.63 | 9.21 | 24.2 | 18.8 | 11.5 | 16.7 | 15.9 | 15.3 | 20.7 | 11.9 | 1.97 | 2.05 | 12.5 | 7.58 | 2.41 | 5.17 | 5.45 | 3.56 | 3.88
20 | COc1cc(-c2cn(-c3ccc(Cl)cc3)c(=O)n2-c2ccccc2)cc(OC)c1OC | > 100 | > 100 | > 100 | > 100 | > 94.9 | > 100 | > 100 | > 100 | > 88.5 | > 100 | 56.3 |  | 45.8 | > 100 | > 49.8 | > 100 | > 100 | 89.3 | 24.1 | > 100

From PubChem BioAssay (NCI)
